# Values quoted from earlier work in US20130324399A1, “FUNGICIDAL COMPOSITIONS AND METHODS OF USE” (Bayer Cropscience LP, priority 2010, published 2013).
# Test system: Pythium spp.
# Details: Triadimenol, 15% w/v
compound,measurement,value
"CC(C)(C)C(O)C(Oc1ccc(Cl)cc1)n1cncn1 (stereo not shown) [Triadimenol, triadimenol]",activity against Pythium spp.,no activity
